Data reported in ChEMBL document CHEMBL5506022, “Discovery of Novel Dual Inhibitors Targeting Mutant IDH1 and NAMPT for the Treatment of Glioma with IDH1Mutation” (J Med Chem, 2024).

Columns and labels:
[1] = target: Isocitrate dehydrogenase [NADP] cytoplasmic (Homo sapiens, UniProt O75874, R132C); assay: Inhibition of recombinant IDH1 R132C mutant (unknown origin) using alpha-ketoglutarate as substrate incubated for 60 mins in presence of NADPH by fluorescence microplate reader
[2] = target: Isocitrate dehydrogenase [NADP] cytoplasmic (Homo sapiens, UniProt O75874); assay: Inhibition of wildtype IDH1 (unknown origin) using DL-isocitrate as substrate incubated for 60 mins in presence of NADP by fluorescence microplate reader
Isocitrate dehydrogenase [NADP] cytoplasmic (Homo sapiens, UniProt O75874), sequence (O75874 whole entry): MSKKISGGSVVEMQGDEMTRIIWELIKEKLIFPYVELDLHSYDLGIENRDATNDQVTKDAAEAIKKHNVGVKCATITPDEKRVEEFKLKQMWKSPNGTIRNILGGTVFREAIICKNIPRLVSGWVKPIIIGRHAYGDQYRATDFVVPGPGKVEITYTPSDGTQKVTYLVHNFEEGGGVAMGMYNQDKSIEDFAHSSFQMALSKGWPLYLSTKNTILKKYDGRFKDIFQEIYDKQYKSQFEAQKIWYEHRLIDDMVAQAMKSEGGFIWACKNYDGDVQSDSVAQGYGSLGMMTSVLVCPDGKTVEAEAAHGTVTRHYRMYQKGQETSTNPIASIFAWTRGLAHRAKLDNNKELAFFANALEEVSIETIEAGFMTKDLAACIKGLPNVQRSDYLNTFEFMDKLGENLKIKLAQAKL

[3] = target: Nicotinamide phosphoribosyltransferase (Homo sapiens, UniProt P43490)
Nicotinamide phosphoribosyltransferase, sequence (P43490 whole entry): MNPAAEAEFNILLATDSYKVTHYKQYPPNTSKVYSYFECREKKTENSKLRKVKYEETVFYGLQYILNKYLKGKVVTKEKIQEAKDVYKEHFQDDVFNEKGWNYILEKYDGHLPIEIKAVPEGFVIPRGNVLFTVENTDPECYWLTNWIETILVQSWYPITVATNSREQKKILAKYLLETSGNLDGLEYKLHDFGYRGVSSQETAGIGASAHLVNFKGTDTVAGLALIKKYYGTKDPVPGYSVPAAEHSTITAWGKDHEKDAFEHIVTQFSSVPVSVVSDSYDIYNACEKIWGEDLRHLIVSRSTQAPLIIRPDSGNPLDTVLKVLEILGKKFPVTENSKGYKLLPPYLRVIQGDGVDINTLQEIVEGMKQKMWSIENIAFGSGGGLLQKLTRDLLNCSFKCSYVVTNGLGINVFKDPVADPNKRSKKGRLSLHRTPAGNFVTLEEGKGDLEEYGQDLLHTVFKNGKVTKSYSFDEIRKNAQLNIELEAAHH

[4] = tested on: U-87 MG; assay: Antiproliferative activity against human U-87 MG cells harboring wildtype IDH1 assessed as inhibition of cell growth incubated for 24 hrs by CCK8 assay; assay type: functional, cell-based, U-87MG ATCC
[5] = tested on: U-87 MG; assay: Antiproliferative activity against human U-87 MG cells harboring wildtype IDH1 assessed as inhibition of cell growth incubated for 48 hrs by CCK8 assay; assay type: functional, cell-based, U-87MG ATCC
[6] = tested on: U-87 MG; assay: Antiproliferative activity against human U-87 MG cells harboring wildtype IDH1 assessed as inhibition of cell growth incubated for 72 hrs by CCK8 assay; assay type: functional, cell-based, U-87MG ATCC
[7] = tested on: U-87 MG; assay type: functional, cell-based, U-87MG ATCC; details: Homo sapiens, 24 h
[8] = tested on: U-87 MG; assay type: functional, cell-based, U-87MG ATCC; details: Homo sapiens, 48 h
[9] = tested on: U-87 MG; assay type: functional, cell-based, U-87MG ATCC; details: Homo sapiens, 72 h
[10] = tested on: U-87 MG; assay: Synergistic antiproliferative activity against human U-87 MG cells harboring wildtype IDH1 assessed as inhibition of cell growth incubated for 48 hrs in presence of FK866 by CCK8 assay; assay type: functional, cell-based, U-87MG ATCC
[11] = tested on: U-87 MG; assay type: functional, cell-based, U-87MG ATCC; details: Homo sapiens, 48 h; remark: listed apart in the source
[12] = tested on: U-87 MG; assay: Synergistic antiproliferative activity against human U-87 MG cells harboring wildtype IDH1 assessed as combination index incubated for 48 hrs in presence of FK866 by CCK8 assay; assay type: functional, U-87MG ATCC
[13] = tested on: U-87 MG; assay type: functional, Homo sapiens, U-87MG ATCC; details: time 48 hrs
[14] = tested on: U-87 MG; assay type: functional, Homo sapiens, U-87MG ATCC; details: time 48 hrs; remark: listed apart in the source
[15] = tested on: U-87 MG; assay type: functional, U-87MG ATCC; details: Homo sapiens, time 48 hrs, read-out: Activity
[16] = tested on: U-87 MG; assay type: functional, Homo sapiens, U-87MG ATCC; details: dose 1 µM; time 48 hrs
[17] = tested on: U-87 MG; assay type: functional, Homo sapiens, U-87MG ATCC; details: dose 1 µM; time 48 hrs; remark: listed apart in the source
[18] = tested on: U-87 MG; assay type: functional, Homo sapiens, U-87MG ATCC; details: dose 1 µM; time 48 hrs; remark: listed apart in the source
[19] = tested on: U-87 MG; assay: cells; details: Homo sapiens, 48 h, read-out: Activity

Isocitrate dehydrogenase [NADP] cytoplasmic (Homo sapiens, UniProt O75874, R132C), sequence (O75874 2-414 R132C limits assumed): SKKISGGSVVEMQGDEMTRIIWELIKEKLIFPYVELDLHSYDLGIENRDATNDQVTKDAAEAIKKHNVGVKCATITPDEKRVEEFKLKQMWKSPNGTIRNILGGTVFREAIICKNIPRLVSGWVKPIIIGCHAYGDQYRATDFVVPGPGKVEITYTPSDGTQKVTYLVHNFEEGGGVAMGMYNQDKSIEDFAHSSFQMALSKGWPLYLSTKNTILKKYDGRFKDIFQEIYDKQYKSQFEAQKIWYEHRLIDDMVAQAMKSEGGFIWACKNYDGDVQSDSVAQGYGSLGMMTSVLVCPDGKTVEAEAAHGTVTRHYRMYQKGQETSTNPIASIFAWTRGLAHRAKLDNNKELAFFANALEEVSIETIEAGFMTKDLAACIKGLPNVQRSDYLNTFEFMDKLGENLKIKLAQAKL

SMILES	IC50 [1] [nM]	IC50 [2] [nM]	IC50 [3] [nM]	other results
C[C@H](Nc1nccc(N2C(=O)OC[C@@H]2[C@H](C)F)n1)c1ccc(-c2ccc(NC(=O)c3ccc4nccn4c3)cc2)cc1	231	7330	39.8	–
C[C@H](Nc1nccc(N2C(=O)OC[C@@H]2[C@H](C)F)n1)c1ccc(-c2ccc(NC(=O)COc3cccnc3)cc2)cn1	419	21100	32.2	–
CC(C)[C@H]1COC(=O)N1c1ccnc(N[C@@H](C)c2ccc(-c3ccc(NC(=O)c4cccnc4)cc3)cc2)n1	509	36700	109	–
C[C@H](Nc1nccc(N2C(=O)OC[C@@H]2Cc2ccccc2)n1)c1ccc(-c2ccc(NC(=O)COc3cccnc3)cc2)cc1	294	35900	65.4	–
C[C@H](Nc1nccc(N2C(=O)OC[C@@H]2Cc2ccccc2)n1)c1ccc(-c2ccc(NC(=O)c3ccc4nccn4c3)cc2)cc1	77.4	9740	58.1	–
C[C@H](Nc1nccc(N2C(=O)OC[C@@H]2Cc2ccccc2)n1)c1ccc(-c2ccc(NC(=O)/C=C/c3cccnc3)cc2)cc1	130	32800	38	–
CC(C)[C@H]1COC(=O)N1c1ccnc(N[C@@H](C)c2ccc(-c3ccc(NC(=O)c4cnc5[nH]ccc5c4)cc3)cc2)n1	17.7	6440	162	–
CC(C)[C@H]1COC(=O)N1c1ccnc(N[C@@H](C)c2ccc(-c3ccc(NC(=O)c4ccc5nccn5c4)cc3)cc2)n1	73.2	9160	193	IC50 [4]: 2660 nM; IC50 [5]: 1210 nM; IC50 [6]: 3260 nM; IC50 [7]: 3110 nM; IC50 [8]: 3260 nM; IC50 [9]: 1460 nM
CC(C)[C@H]1COC(=O)N1c1ccnc(N[C@@H](C)c2ccc(NC(=O)CCCCNC(=O)/C=C/c3cccnc3)cc2)n1	405	6180	25.5	–
C[C@H](Nc1nccc(N2C(=O)OC[C@@H]2[C@H](C)F)n1)c1ccc(-c2ccc(NC(=O)/C=C/c3cccnc3)cc2)cn1	342	14000	53.2	–
CC(C)[C@H]1COC(=O)N1c1ccnc(N[C@@H](C)c2ccc(-c3ccc(NC(=O)COc4cccnc4)cc3)cc2)n1	114	8520	33.1	IC50 [4]: 1020 nM; IC50 [5]: 890 nM; IC50 [6]: 540 nM; IC50 [7]: 1660 nM; IC50 [8]: 1180 nM; IC50 [9]: 570 nM
C[C@H](Nc1nccc(N2C(=O)OC[C@@H]2[C@@H](C)OC(C)(C)C)n1)c1ccc(-c2ccc(NC(=O)COc3cccnc3)cc2)cc1	252	33900	51.4	–
C[C@H](Nc1nccc(N2C(=O)OC[C@@H]2[C@@H](C)O)n1)c1ccc(-c2ccc(NC(=O)c3ccc4nccn4c3)cc2)cc1	102	15700	24.8	–
CC(C)[C@H]1COC(=O)N1c1ccnc(N[C@@H](C)c2ccc(NC(=O)CCNC(=O)/C=C/c3cccnc3)cc2)n1	284	3240	22.4	–
N#Cc1ccnc(N2C(=O)CC[C@H]2C(=O)N(c2cncc(F)c2)[C@H](C(=O)NC2CC(F)(F)C2)c2ccccc2Cl)c1 [IVOSIDENIB]	–	–	–	IC50 [4]: 100000 nM; IC50 [5]: 89300 nM; IC50 [6]: 67200 nM; IC50 [7]: 3060 nM; IC50 [8]: 1020 nM; IC50 [9]: 980 nM; IC50 [10]: 2510 nM; IC50 [11]: 560 nM; CI [12]: 0.78; CI [13]: 0.88; CI [14]: 0.88; viability at 1 µM [15]: 27.8%; Activity [16]: 49.6%; Activity [17]: 18%; Activity [18]: 4.59%; viability at 1 µM [19]: 37.8%
CC(C)[C@H]1COC(=O)N1c1ccnc(N[C@@H](C)c2ccc(NC(=O)CCCNC(=O)/C=C/c3cccnc3)cc2)n1	355	9400	45.7	–
CC(C)[C@H]1COC(=O)N1c1ccnc(N[C@@H](C)c2ccc(NC(=O)C3CCN(C(=O)/C=C/c4cccnc4)C3)cc2)n1 (stereo not given in full)	430	3710	54.1	–
C[C@H](Nc1nccc(N2C(=O)OC[C@@H]2[C@@H](C)OC(C)(C)C)n1)c1ccc(-c2ccc(NC(=O)/C=C/c3cccnc3)cc2)cc1	78.7	14700	42.5	–
C[C@H](Nc1nccc(N2C(=O)OC[C@@H]2c2ccccc2)n1)c1ccc(-c2ccc(NC(=O)/C=C/c3cccnc3)cc2)cc1	147	36500	221	–
CC(C)[C@H]1COC(=O)N1c1ccnc(N[C@@H](C)c2ccc(NC(=O)CNC(=O)/C=C/c3cccnc3)cc2)n1	362	4430	15.1	–
C[C@H](Nc1nccc(N2C(=O)OC[C@@H]2[C@@H](C)OC(C)(C)C)n1)c1ccc(-c2ccc(NC(=O)c3ccc4nccn4c3)cc2)cc1	57	5790	12.6	–
CC(C)[C@H]1COC(=O)N1c1ccnc(N[C@@H](C)c2ccc(-c3ccc(NC(=O)NCc4cccnc4)cc3)cc2)n1	1020	27000	374	–
C[C@H](Nc1nccc(N2C(=O)OC[C@@H]2[C@@H](C)O)n1)c1ccc(-c2ccc(NC(=O)COc3cccnc3)cc2)cc1	138	6940	42.2	–
CC(C)[C@H]1COC(=O)N1c1ccnc(N[C@@H](C)c2ccc(-c3ccc(NC(=O)c4cnccn4)cc3)cc2)n1	579	19700	241	–
C[C@H](Nc1nccc(N2C(=O)OC[C@@H]2[C@@H](C)O)n1)c1ccc(-c2ccc(NC(=O)/C=C/c3cccnc3)cc2)cc1	57	6460	32.6	–
C[C@H](Nc1nccc(N2C(=O)OC[C@@H]2[C@H](C)F)n1)c1ccc(-c2ccc(NC(=O)/C=C/c3cccnc3)cc2)cc1	59.3	6850	24.4	–
CC(C)[C@H]1COC(=O)N1c1ccnc(N[C@@H](C)c2ccc(-c3ccc(NC(=O)c4cc5cnccc5[nH]4)cc3)cc2)n1	171	9160	127	–
CC(C)[C@H]1COC(=O)N1c1ccnc(N[C@@H](C)c2ccc(NC(=O)C3CCN(C(=O)/C=C/c4cccnc4)CC3)cc2)n1	308	11100	81.2	–
C[C@H](Nc1nccc(N2C(=O)OC[C@@H]2[C@H](C)F)n1)c1ccc(-c2ccc(NC(=O)c3ccc4nccn4c3)cc2)cn1	369	26100	24.3	–
CC(C)[C@H]1COC(=O)N1c1ccnc(N[C@@H](C)c2ccc(-c3ccc(NC(=O)c4cc5ncccc5o4)cc3)cc2)n1	232	5720	279	–
